From ChEMBL document CHEMBL1148215, “Lipoxygenase inhibitory constituents from Periploca aphylla” (J Nat Prod, 2004)

Experiment: Inhibition of Lipoxygenase 1B

| IC50 [µM] | SMILES |
| --- | --- |
| 150 | CC(C)(O)/C=C/C1=CC(=O)[C@H](O)C[C@]1(C)O |
| 22.6 | O=c1cc(-c2ccccc2)oc2cc(O)c(O)c(O)c12 [BAICALEIN] |
| 13.5 | Oc1cc(O)c2c(c1)O[C@H](c1ccc(O)c(Oc3cc(O)c4c(c3)O[C@H](c3ccc(O)c(O)c3)[C@H](O)C4)c1)[C@H](O)C2 |
| 19.7 | Oc1cc(O)c2c(c1)O[C@H](c1ccc(O)c(Oc3cc([C@H]4Oc5cc(O)cc(O)c5C[C@@H]4O)ccc3O)c1)[C@@H](O)C2 |
